Drawing on PubChem BioAssay (NCI), this text covers GI50 and TGI for seven compounds.

Some test systems named below: HT29 colon; EKVX NSCLC; SF-268 CNS; SF-295 CNS; HCC-2998 colon; M14 melanoma; SK-MEL-2 melanoma; NCI/ADR-RES ovarian; TK-10 renal; OVCAR-8 ovarian.
Experiment in all cases: growth of human tumour cells (NCI), 48 h

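Where inhibition never reached the appropriate level, the endpoint shown equals the highest concentration tested. Otherwise, values were interpolated linearly from a five-concentration, 48-hour dose response in 96-well plates. GI50: concentration for 50% inhibition of growth. At the TGI there is no net growth.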

With `COc1cc2nc(Cl)nc(Nc3cccc(C(=O)/C=C/c4ccccc4)c3)c2cc1OC`, the GI50 in the assay with HT29 colon was 4.39 µM; in the assay with EKVX NSCLC, over 33.7 µM; with SF-268 CNS, 4.99 µM; with HCC-2998 colon it was 2.54 µM; in the assay with M14 melanoma, 5.01 µM; with SK-MEL-2 melanoma it was over 21 µM. In addition, the results for the GI50 in the assay on NCI/ADR-RES ovarian, with TK-10 renal and in the assay on OVCAR-8 ovarian were 4.26 µM, 4.19 µM and 4.99 µM, respectively. The TGI was over 100 µM in the assay on HT29 colon; over 100 µM in the assay on EKVX NSCLC; 81.4 µM in the assay with SF-268 CNS; over 44.2 µM with SF-295 CNS; 5.56 µM in the assay on HCC-2998 colon; over 100 µM in the assay with M14 melanoma. In addition, the TGI is over 75.9 µM in the assay on SK-MEL-2 melanoma, over 100 µM with NCI/ADR-RES ovarian, 20 µM in the assay on TK-10 renal and over 100 µM with OVCAR-8 ovarian.

For the compound `COc1ccc2c(c1)CCC1C2CCC2(C)C1CCC2(O)CNC(=O)CCCCC1CCSS1` (stereo not drawn), the GI50 was 2.28 µM in the assay on HT29 colon; 48 µM in the assay on EKVX NSCLC; 15.9 µM in the assay with SF-268 CNS; 19.4 µM with SF-295 CNS; 2.13 µM in the assay with HCC-2998 colon; 20.8 µM with M14 melanoma. Further, the GI50 with SK-MEL-2 melanoma is 33.2 µM; with NCI/ADR-RES ovarian, 7.28 µM; in the assay with TK-10 renal, 17.7 µM; with OVCAR-8 ovarian, 11.7 µM. The TGI was 6.81 µM in the assay on HT29 colon; over 100 µM in the assay on EKVX NSCLC; over 100 µM in the assay with SF-268 CNS; 79.6 µM with SF-295 CNS; 5.52 µM in the assay with HCC-2998 colon; over 100 µM in the assay with M14 melanoma. Moreover, the TGI was over 100 µM with SK-MEL-2 melanoma, over 100 µM with NCI/ADR-RES ovarian, 57 µM in the assay on TK-10 renal and over 100 µM in the assay on OVCAR-8 ovarian.

Turning to `NC(=O)[C@H]1CCN(c2ncnc(N)c2F)C[C@@H]1N1CCC[C@@H](Nc2cc(Cl)cc(C(F)(F)F)c2)C1=O`, the GI50 was 5.29 µM in the assay with HT29 colon; 28.7 µM in the assay with EKVX NSCLC; 23.8 µM in the assay with SF-268 CNS; 17.1 µM in the assay with SF-295 CNS; 14.6 µM in the assay with HCC-2998 colon; 12.8 µM in the assay on M14 melanoma. Moreover, the GI50 with SK-MEL-2 melanoma was 19 µM; in the assay with NCI/ADR-RES ovarian, 29.7 µM; with TK-10 renal, 13.5 µM; in the assay on OVCAR-8 ovarian, 25.6 µM. For the same compound, the TGI with HT29 colon is 55.1 µM; in the assay with EKVX NSCLC, 77.1 µM; in the assay with SF-268 CNS it was over 100 µM; with SF-295 CNS, 41.8 µM; with HCC-2998 colon, 36.3 µM; in the assay on M14 melanoma, 36.8 µM. The TGI with SK-MEL-2 melanoma is 41.5 µM; in the assay on NCI/ADR-RES ovarian, over 100 µM; in the assay with TK-10 renal, 39 µM; in the assay on OVCAR-8 ovarian, over 100 µM.

For `O=C(CCN1CCCC1)Nc1ccc2c(NCc3ccc(F)cc3)c3ccccc3nc2c1`, the GI50 is 0.377 µM in the assay with HT29 colon; 0.58 µM in the assay on EKVX NSCLC; 0.465 µM in the assay with SF-268 CNS; 0.59 µM in the assay with SF-295 CNS; 0.485 µM in the assay on HCC-2998 colon; 1.07 µM with M14 melanoma. Further, the GI50 in the assay on SK-MEL-2 melanoma was 1.21 µM; in the assay on NCI/ADR-RES ovarian it was 9.11 µM; in the assay with TK-10 renal it was 1.04 µM; with OVCAR-8 ovarian it was 0.517 µM. The TGI in the assay on HT29 colon was found to be 1.85 µM; in the assay on EKVX NSCLC, 2.3 µM; in the assay on SF-268 CNS, 1.91 µM; in the assay on SF-295 CNS, 2.03 µM; with HCC-2998 colon it was 2.03 µM; with M14 melanoma, 2.4 µM. For the same compound, the TGI with SK-MEL-2 melanoma amounted to 2.7 µM; with NCI/ADR-RES ovarian, 43.9 µM; in the assay on TK-10 renal it was 2.93 µM; with OVCAR-8 ovarian it was 2.86 µM.

As for `CCn1c(-c2nonc2N)nc2cncc(C(=O)N3CCNCC3)c21`, the GI50 in the assay on HT29 colon, with EKVX NSCLC, in the assay with SF-268 CNS, in the assay with SF-295 CNS, with HCC-2998 colon and with M14 melanoma was over 25 µM each time. Also, the GI50 in the assay on SK-MEL-2 melanoma, in the assay on NCI/ADR-RES ovarian, with TK-10 renal and in the assay with OVCAR-8 ovarian was over 25 µM throughout. Further, the TGI in the assay on HT29 colon, in the assay with EKVX NSCLC, in the assay with SF-268 CNS, in the assay with SF-295 CNS, in the assay with HCC-2998 colon and with M14 melanoma was over 25 µM each time. For the same compound, the TGI in the assay on SK-MEL-2 melanoma, in the assay with NCI/ADR-RES ovarian, in the assay with TK-10 renal and with OVCAR-8 ovarian was over 25 µM each time.

Consider `CC(C)(O)c1ccc(N2CCN(c3nnc(Cc4ccccc4)c4ccccc34)CC2)nc1`, for which the GI50 in the assay with HT29 colon is 12 µM; in the assay with EKVX NSCLC, 4 µM; in the assay on SF-268 CNS, 13.8 µM; in the assay with SF-295 CNS, 4.16 µM; with HCC-2998 colon, 14 µM; in the assay on M14 melanoma, 8.86 µM. The GI50 was 9.57 µM with SK-MEL-2 melanoma, 4.09 µM in the assay on NCI/ADR-RES ovarian, 13.4 µM in the assay on TK-10 renal and 8.01 µM in the assay with OVCAR-8 ovarian. Besides, the TGI turned out to be 37.7 µM in the assay on HT29 colon; 19.8 µM in the assay on EKVX NSCLC; 33.5 µM with SF-268 CNS; 16.7 µM with SF-295 CNS; 27.8 µM in the assay with HCC-2998 colon; 23 µM with M14 melanoma. Besides, the TGI was found to be 26.2 µM in the assay with SK-MEL-2 melanoma, 46.8 µM in the assay on NCI/ADR-RES ovarian, 38.1 µM in the assay with TK-10 renal and 42.5 µM with OVCAR-8 ovarian.

For the compound `CC1=C(C(=O)OCc2ccccc2)C(c2ccc3c(c2)OCO3)n2c(nc3ccccc32)N1` (stereo not drawn), the GI50 is 0.352 µM in the assay on HT29 colon; 0.692 µM with EKVX NSCLC; 0.513 µM in the assay on SF-268 CNS; 0.321 µM with SF-295 CNS; over 33.2 µM in the assay with HCC-2998 colon; 0.418 µM with M14 melanoma. In addition, the GI50 in the assay with NCI/ADR-RES ovarian was 0.311 µM; in the assay on TK-10 renal, over 100 µM; with OVCAR-8 ovarian, 0.628 µM. In addition, the TGI in the assay with HT29 colon, in the assay with EKVX NSCLC, in the assay with SF-268 CNS, with SF-295 CNS, in the assay on HCC-2998 colon and in the assay on M14 melanoma was over 100 µM in each case. The TGI in the assay on SK-MEL-2 melanoma, with NCI/ADR-RES ovarian, with TK-10 renal and in the assay with OVCAR-8 ovarian was over 100 µM in each case.
